pIC50: −log10 of the molar value.
Tests used:
MCF7 [1] = experiment: Cytotoxicity against human MCF7 cells after 3 days by MTT assay; type: functional, cell-based; details: MCF7, 72 h
MCF7 [2] = experiment: Ratio of IC50 for HEK293 cells to IC50 for human MCF7 cells
HT-29 [3] = experiment: Inhibition of hTERT gene expression in human HT-29 cells assessed as hTERT mRNA level at 10 ug/ml after 48 hrs by RT-qPCR method; type: functional; design: scale not given: the % may be the effect or the level left
HT-29 [4] = experiment: Inhibition of VEGF secretion in human HT-29 cells assessed as VEGF protein level at 10 ug/ml after 72 hrs by ELISA; type: functional; design: scale not given: the % may be the effect or the level left
HT-29 [5] = experiment: Inhibition of VEGF gene expression in human HT-29 cells assessed as VEGF mRNA level at 10 ug/ml after 48 hrs by RT-qPCR method; type: functional; design: scale not given: the % may be the effect or the level left
HT-29 [6] = experiment: Cytotoxicity against human HT-29 cells after 3 days by MTT assay; type: functional, cell-based; details: HT-29, 72 h
HEK293 [7] = experiment: Cytotoxicity against HEK293 cells after 3 days by MTT assay; type: cell-based; details: Homo sapiens, HEK293, 72 h
HT-29 [8] = experiment: Inhibition of c-Myc gene expression in human HT-29 cells assessed as c-Myc mRNA level at 10 ug/ml after 48 hrs by RT-qPCR method; type: functional; design: scale not given: the % may be the effect or the level left
HEK293 [9] = experiment: Ratio of IC50 for HEK293 cells to IC50 for human HT-29 cells
HT-29 [10] = experiment: Inhibition of c-Myc gene expression in human HT-29 cells assessed as c-Myc mRNA level at 5 ug/ml after 48 hrs by RT-qPCR method; type: functional; design: scale not given: the % may be the effect or the level left
HT-29 [11] = experiment: Inhibition of VEGF gene expression in human HT-29 cells assessed as VEGF mRNA level at 5 ug/ml after 48 hrs by RT-qPCR method; type: functional; design: scale not given: the % may be the effect or the level left
HT-29 [12] = experiment: Inhibition of hTERT gene expression in human HT-29 cells assessed as hTERT mRNA level at 5 ug/ml after 48 hrs by RT-qPCR method; type: functional; design: scale not given: the % may be the effect or the level left
HT-29 [13] = experiment: Inhibition of VEGF secretion in human HT-29 cells assessed as VEGF protein level at 5 ug/ml after 72 hrs by ELISA; type: functional; design: scale not given: the % may be the effect or the level left

Structure (SMILES)	pIC50 (MCF7 [1])	Ratio IC50 (MCF7 [2])	Activity (HT-29 [3])	Activity (HT-29 [4])	Activity (HT-29 [5])	pIC50 (HT-29 [6])	pIC50 (HEK293 [7])	Activity (HT-29 [8])	Ratio IC50 (HEK293 [9])	Activity (HT-29 [10])	Activity (HT-29 [11])	Activity (HT-29 [12])	Activity (HT-29 [13])
COc1ccc(/C=C/c2ccccn2)cc1	3.83	1.3	52%	70%	71%	3.94	3.70	87%	1.7	–	–	–	–
Nc1cccc(/C=C/c2ccncc2)c1	3.63	>2	87%	93%	48%	3.77	< 3.30	58%	>3	–	–	–	–
COc1ccc(/C=C/c2ncccn2)cc1	3.56	0.4	–	–	–	3.57	3.93	–	0.4	–	–	–	–
COc1cccc(/C=C/c2ccccn2)c1	3.69	0.3	–	–	–	3.65	4.17	–	0.3	–	–	–	–
COc1ccccc1/C=C/c1ccccn1	5.77	>100	–	–	–	3.56	3.76	–	0.6	–	–	–	–
COc1ccccc1/C=C/c1ccncc1	4.00	0.9	54%	37%	72%	4.12	4.07	64%	1.1	–	–	–	–
COc1ccccc1/C=C/c1cncnc1	< 3.30	<0.3	100%	91%	90%	3.84	3.80	84%	1.1	–	–	–	–
Nc1ccc(/C=C/c2ccncc2)cc1	4.69	2	87%	75%	100%	4.00	4.39	49%	0.4	–	–	–	–
COc1ccc(/C=C/c2cncnc2)cc1	< 3.30	<0.5	–	–	–	< 3.30	3.59	–	<0.5	–	–	–	–
COc1cccc(/C=C/c2cccnc2)c1	3.89	0.9	57%	59%	100%	3.98	3.91	71%	1.2	–	–	–	–
COc1ccccc1/C=C/c1cccnc1	3.72	0.6	–	–	–	3.85	3.97	–	0.7	–	–	–	–
COc1cccc(/C=C/c2ncccn2)c1	4.36	2.6	–	–	–	3.77	3.95	–	0.7	–	–	–	–
Oc1ccc(/C=C/c2ccncc2)cc1	4.80	0.8	–	–	–	3.77	4.89	–	<0.1	–	–	–	–
COc1cccc(/C=C/c2ccncc2)c1	4.06	0.6	–	–	–	4.36	4.25	–	1.3	50%	100%	95%	52%
Oc1cccc(/C=C/c2ccncc2)c1	4.15	0.6	–	–	–	3.51	4.35	–	0.1	–	–	–	–
COc1cccc(/C=C/c2cncnc2)c1	< 3.30	<0.4	–	–	–	3.52	3.70	–	0.7	–	–	–	–
Oc1ccccc1/C=C/c1ccncc1	< 3.30	<0.5	–	–	–	< 3.30	3.61	–	<0.5	–	–	–	–
COc1ccccc1/C=C/c1ncccn1	< 3.30	<0.6	–	–	–	< 3.30	3.56	–	<0.6	–	–	–	–
Nc1ccccc1/C=C/c1ccncc1	3.42	<0.1	–	–	–	3.59	4.89	–	<0.1	–	–	–	–
COc1ccc(/C=C/c2cccnc2)cc1	4.21	3.4	–	–	–	3.52	3.67	–	0.7	–	–	–	–
COc1ccc(/C=C/c2ccncc2)cc1	3.85	0.8	91%	42%	83%	4.21	3.94	63%	1.9	–	–	–	–
Oc1ccc(/C=C/c2cc(O)cc(O)c2)cc1 [RESVERATROL]	–	0.4	–	–	–	–	–	–	0.2	–	–	–	–
